Experimental data taken from patent US10829491B2, “Pyrimido[5,4-B]indolizine or pyrimido[5,4-B]pyrrolizine compound, preparation method and use thereof” (SHANGHAI INSTITUTE OF MATERIA MEDICA, CHINESE ACADEMY OF …, priority 2016, dated 2020).
Like-named read-outs stand apart in the source and are kept apart here.

Key:
[1] = tested on: human B lymphoma Ramos cells; experiment: In vitro proliferation inhibition of Ramos cells (MTT); type: cell-based; settings: for IC50: Homo sapiens, Ramos cells, 48 hours, MTT
Method: (§1) Cells were seeded at 10000-15000/well into a 96-well culture plate, different concentrations of a test compound were added to each well (3 replicate-wells for each concentration), and blank control, positive compound control and negative control were provided. 48 hours after the administration of the drugs, […] of MTT (5 mg/ml) was added, and the plate was incubated at 37° C. for 4 h, and then […] of a triad solution (10% SDS, 5% isobutanol, 0.01 M HCl) was added. The resultant was cultured at 37° C. overnight, and the OD value was measured at a wavelength of 570 nm using a wavelength-tunable microplate reader ELISA SPECTRA MAX 190. […] The IC50 value was calculated by fitting the inhibition curve using a four-parameter method. The experiment was repeated 3 times independently.

[2] = tested on: human diffuse large B lymphoma TMD8 cells; experiment: In vitro proliferation inhibition of TMD8 cells (MTT); type: cell-based; settings: 48 hours, read-out: IC50 for the inhibition TMD of cells
Method: as §1, with “added.” for “added. The resultant was cultured at 37° C. overnight, and the OD value was measured at a wavelength of 570 nm using a wavelength-tunable microplate reader ELISA SPECTRA MAX 190.”

[3] = target: BTK tyrosine kinase protein (Homo sapiens (Human), UniProt Q06187); experiment: Inhibitory activity against Bruton kinase (BTK) at molecular level (ELISA); type: biochemical
BTK tyrosine kinase protein, sequence (Q06187 whole entry): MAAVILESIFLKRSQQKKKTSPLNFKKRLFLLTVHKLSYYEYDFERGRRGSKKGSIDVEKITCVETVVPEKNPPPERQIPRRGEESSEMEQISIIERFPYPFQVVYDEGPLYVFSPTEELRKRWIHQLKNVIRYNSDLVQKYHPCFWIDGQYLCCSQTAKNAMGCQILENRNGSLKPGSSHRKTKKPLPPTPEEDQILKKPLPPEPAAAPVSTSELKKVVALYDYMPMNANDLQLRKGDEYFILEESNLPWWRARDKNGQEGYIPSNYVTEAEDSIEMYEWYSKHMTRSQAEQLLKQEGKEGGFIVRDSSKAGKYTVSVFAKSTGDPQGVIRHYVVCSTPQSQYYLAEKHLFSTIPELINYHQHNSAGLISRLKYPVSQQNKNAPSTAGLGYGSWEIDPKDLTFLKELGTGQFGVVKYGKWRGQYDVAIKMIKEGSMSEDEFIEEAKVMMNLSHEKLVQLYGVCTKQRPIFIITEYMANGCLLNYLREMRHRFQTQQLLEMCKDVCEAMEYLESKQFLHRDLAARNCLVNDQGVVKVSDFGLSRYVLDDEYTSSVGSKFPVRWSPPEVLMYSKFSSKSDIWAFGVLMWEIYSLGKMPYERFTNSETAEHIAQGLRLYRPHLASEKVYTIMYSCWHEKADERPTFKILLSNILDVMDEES
Method: Poly(Glu, Tyr) 4:1 as a substrate for enzyme catalyzed reaction was diluted with potassium-free PBS (10 mM sodium phosphate buffer, 150 mM NaCl, pH 7.2-7.4) to […] to coat a ELISA plate. The plate was cultured at 37° C. for 12-16 h, washed with 200 μL/well of T-PBS (PBS containing 0.1% of Tween-20) three times, and dried in an oven at 37° C. for 1-2 h. Into the above ELISA plate coated with the substrate, an ATP solution diluted with a reaction buffer (50 mM HEPES, pH 7.4, 50 mM MgCl2, 5 mM MnCl2, 0.2 mM Na3VO4, 1 mM DTT) was first added at 50 μL/well (concentration of 10 μM). Then, a test compound diluted by 1% DMSO to a suitable concentration was added (10 μL/well), and negative control well and positive compound control well were provided separately. Finally, the reaction was initiated by adding BTK tyrosine kinase protein diluted in 40 μL of reaction buffer.
The above reaction system was placed on a shaker (100 rpm) at 37° C. for 1 h, then washed with T-PBS for three times, primary antibody PY99 (Cell Signaling Technology) was added at 100 μL/well, and the reaction was conducted on the shaker at 37° C. for 0.5 h. After the plate was washed with T-PBS, secondary antibody horseradish peroxidase-labeled goat anti-mouse IgG was added at 100 μL/well, and the reaction was conducted on the shaker at 37° C. for 0.5 h. After the plate was washed with T-PBS, 2 mg/mL of OPD developing solution was added at 100 μL/well, and the reaction was conducted in the dark at 25° C. for 1 to 10 minutes. Then the reaction was quenched by adding 2 M H2SO4 at 50 μL/well. The data were read on a wavelength-tunable microplate reader ELISA SPECTRA MAX 190 at a wavelength of 490 nm.
IC50 was calculated by fitting the inhibition curve using a four-parameter method.

[4] = BTK kinase ELISA, ATP 10 μM, read-out: IC50

C=CC(=O)NC1CCc2c(-c3ccc(Oc4ccccc4)cc3)c3c(N)ncnc3n2C1 (racemic) [Compound S3, N-(4-amino-5-(4-phenoxyphenyl)-6,7,8,9-tetrahydropyrimido[5,4-b]indolizine-8-yl)acrylamide]
IC50 [1]: 11400 ± 800 nM

C=CC(=O)N[C@@H]1CCc2c(-c3ccc(Oc4ccccc4)cc3)c3c(N)ncnc3n2C1 [Compound S1, (R)—N-(4-amino-5-(4-phenoxyphenyl)-6,7,8,9-tetrahydropyrimido[5,4-b]indolizine-8-yl)acrylamide]
IC50 [2]: 5.8 nM
IC50 [1]: 94700 ± 45100 nM
cell activity against human B lymphoma Ramos cells ([1]; qualitative statement): low cell activity

CC(C)(C)C=C(C#N)C(=O)N[C@@H]1CCc2c(-c3ccc(Oc4ccccc4)cc3)c3c(N)ncnc3n2C1 [Compound S4, (R)—N-(4-amino-5-(4-phenoxyphenyl)-6,7,8,9-tetrahydropyrimido[5,4-b]indolizine-8-yl)-2-cyano-4,4-dimethylpent-2-enamide]
IC50 [3, 4]: > 100 nM

CN(C)C/C=C/C(=O)N[C@@H]1CCc2c(-c3ccc(Oc4ccccc4)cc3)c3c(N)ncnc3n2C1 [Compound S5, (R,E)-N-(4-amino-5-(4-phenoxyphenyl)-6,7,8,9-tetrahydropyrimido[5,4-b]indolizine-8-yl)-4-(dimethylamino)but-2-enamide]
IC50 [1]: 6600 ± 2100 nM
IC50 [3, 4]: < 1 nM

C=CC(=O)NCC(=O)N[C@@H]1CCc2c(-c3ccc(Oc4ccccc4)cc3)c3c(N)ncnc3n2C1 [Compound S6, (R)—N-(2-((4-amino-5-(4-phenoxyphenyl)-6,7,8,9-tetrahydropyrimido[5,4-b]indolizine-8-yl)amino)-2-oxoethyl)acrylamide]
IC50 [1]: 5500 ± 1000 nM
IC50 [3, 4]: 1 to 10 nM

C=CC(=O)NC(C)C(=O)N[C@@H]1CCc2c(-c3ccc(Oc4ccccc4)cc3)c3c(N)ncnc3n2C1 (stereo partly drawn) [Compound S7, N-(1-(((R)-4-amino-5-(4-phenoxyphenyl)-6,7,8,9-tetrahydropyrimido[5,4-b]indolizine-8-yl)imino)-1-oxoprop-2-yl) acrylamide]
IC50 [3, 4]: 10 to 100 nM

C=CC(=O)NC1(C(=O)N[C@@H]2CCc3c(-c4ccc(Oc5ccccc5)cc4)c4c(N)ncnc4n3C2)CC1 [Compound S8, (R)-1-acrylamido-N-(4-amino-5-(4-phenoxyphenyl)-6,7,8,9-tetrahydropyrimido[5,4-b]indolizine-8-yl)cyclopropanecarboxamide]
IC50 [3, 4]: > 100 nM

C=CS(=O)(=O)N[C@@H]1CCc2c(-c3ccc(Oc4ccccc4)cc3)c3c(N)ncnc3n2C1 [Compound S9, (R)—N-(4-amino-5-(4-phenoxyphenyl)-6,7,8,9-tetrahydropyrimido[5,4-b]indolizine-8-yl)vinylsulfamide]
IC50 [3, 4]: 10 to 100 nM

CC#CC(=O)N[C@@H]1CCc2c(-c3ccc(Oc4ccccc4)cc3)c3c(N)ncnc3n2C1 [Compound S10, (R)—N-(4-amino-5-(4-phenoxyphenyl)-6,7,8,9-tetrahydropyrimido[5,4-b]indolizine-8-yl)But-2-ynylamide]
IC50 [2]: 30 nM
IC50 [1]: 8720 ± 8580 nM
IC50 [3]: 1 to 10 nM

C=CC(=O)N[C@@H]1CCc2c(-c3ccc(Oc4ccc(F)cc4)cc3)c3c(N)ncnc3n2C1 [Compound S11, (R)—N-(4-amino-5-(4-(4-fluorophenoxy)phenyl)-6,7,8,9-tetrahydropyrimido[5,4-b]indolizine-8-yl)acrylamide]
IC50 [3, 4]: < 1 nM

C=CC(=O)N[C@@H]1CCc2c(-c3ccc(Oc4ccc(C(F)(F)F)cc4)cc3)c3c(N)ncnc3n2C1 [Compound S12, (R)—N-(4-amino-5-(4-(4-(trifluoromethyl)phenoxy)phenyl)-6,7,8,9-tetrahydropyrimido[5,4-b]indolizine-8-yl)acrylamide]
IC50 [3, 4]: < 1 nM

C=CC(=O)N[C@@H]1CCc2c(-c3ccc(C(=O)Nc4ccccn4)cc3)c3c(N)ncnc3n2C1 [Compound S13, (R)-4-(8-acrylamido-4-amino-6,7,8,9-tetrahydropyrimido[5,4-b]indolizine-5-yl)-N-(pyridin-2-yl)benzamide]
IC50 [3, 4]: 1 to 10 nM

CC#CC(=O)N[C@@H]1CCc2c(-c3ccc(C(=O)Nc4ccccn4)cc3)c3c(N)ncnc3n2C1 [Compound S14, (R)-4-(4-amino-8-(but-2-ynylamide)-6,7,8,9-tetrahydropyrimido[5,4-b]indolizine-5-yl)-N-(pyridin-2-yl)benzamide]
IC50 [3, 4]: 1 to 10 nM

C=CC(=O)N[C@@H]1CCc2c(-c3ccc(C(=O)Nc4ccc(F)cn4)cc3)c3c(N)ncnc3n2C1 [Compound S15, (R)-4-(8-acrylamido-4-amino-6,7,8,9-tetrahydropyrimido[5,4-b]indolizine-5-yl)-N-(5-fluoropyridin-2-yl)benzamide]
IC50 [3, 4]: 1 to 10 nM

C=CC(=O)N[C@@H]1CCc2c(-c3ccc(C(=O)Nc4cc(C(F)(F)F)ccn4)cc3)c3c(N)ncnc3n2C1 [Compound S16, (R)-4-(8-acrylamido-4-amino-6,7,8,9-tetrahydropyrimido[5,4-b]indolizine-5-yl)-N-(4-(trifluoromethyl)pyridin-2-yl)benzamide]
IC50 [3, 4]: 1 to 10 nM

C=CC(=O)N[C@@H]1CCc2c(-c3ccc(C(=O)N[C@@H](COC)c4ccccc4)cc3)c3c(N)ncnc3n2C1 [Compound S17, 4-((R)-8-acrylamido-4-amino-6,7,8,9-tetrahydropyrimido[5,4-b]indolizine-5-yl)-N—((R)-2-methoxy-1-phenylethyl)benzamide]
IC50 [3, 4]: 1 to 10 nM

C=CC(=O)N[C@H]1Cn2c(c(-c3ccc(Oc4ccccc4)cc3)c3c(N)ncnc32)C1=C [Compound S18, (R)—N-(4-amino-6-methylidene-5-(4-phenoxyphenyl)-7,8-dihydro-6H-pyrimido[5,4-b]pyrrolizin-7-yl)acrylamide]
IC50 [3, 4]: 1 to 10 nM

C=C1c2c(-c3ccc(Oc4ccccc4)cc3)c3c(N)ncnc3n2C[C@@H]1NC(=O)C#CC [Compound S19, (R)—N-(4-amino-6-methylidene-5-(4-phenoxyphenyl)-7,8-dihydro-6H-pyrimido[5,4-b]pyrrolizin-7-yl)but-2-ynylamide]
IC50 [1]: 16900 ± 7900 nM
IC50 [3]: < 1 nM

C=CC(=O)N[C@H]1Cn2c(c(-c3ccc(C(=O)Nc4ccccn4)cc3)c3c(N)ncnc32)C1=C [Compound S20, (R)-4-(7-acrylamido-4-amino-6-methylidene-7,8-dihydro-6H-pyrimido[5,4-b]pyrrolizin-5-yl)-N-(pyridin-2-yl)benzamide]
IC50 [3, 4]: 1 to 10 nM

C=CC(=O)N[C@H]1Cn2c(c(-c3ccc(Oc4ccccc4)cc3)c3c(N)ncnc32)C1C (stereo partly drawn) [Compound S21, N-((7R)-4-amino-6-methyl-5-(4-phenoxyphenyl)-7,8-dihydro-6H-pyrimido[5,4-b]pyrrolizin-7-yl)acrylamide]
IC50 [3, 4]: 1 to 10 nM

C=CC(=O)N[C@H]1Cn2c(c(-c3ccc(C(=O)Nc4ccccn4)cc3)c3c(N)ncnc32)C1C (stereo partly drawn) [Compound S22, 4-((7R)-7-acrylamido-4-amino-6-methyl-7,8-dihydro-6H-pyrimido[5,4-b]pyrrolizin-5-yl)-N-(pyridin-2-yl)benzamide]
IC50 [3, 4]: 1 to 10 nM

C=CC(=O)N1CCC[C@@H](n2nc(-c3ccc(Oc4ccccc4)cc3)c3c(N)ncnc32)C1 [Ibrutinib, reference compound]
IC50 [2]: 4.5 nM
IC50 [1]: ~8530 nM
